Laboratory results: patent US12702649B2, “Method of treating cystic fibrosis airway disease” (priority 2016, dated 2026)
“Also recorded” adds a separate entry of the source. Like-named read-outs stand apart in the source and are kept apart here.

Assays:
[1] = Buffering capacity by acid titration; type: physicochemical; conditions: 0.3 M tromethamine titrated with 0.1 M HCl
Method: 100 mM HCl was delivered into 5 mL of buffer at a rate of 0.2 ml/min. Titration was carried out to endpoint of pH 3. The volume of HCl delivered was recorded and used to calculate the acid equivalents needed to […] pH by 1 unit or buffering capacity.

[2] = test system: nasal epithelia of CF subjects
Description: Methods Mol Biol. 2011; 741:69-86. doi: 10.1007/978-1-61779-117-8_6. PubMed PMID: 21594779; PubMed Central PMCID: PMCPMC3760477).

[3] = test system: mice
Description: FIGS. 14A-14G. […] (A) BAL pH measured 3.5 hr after THAM inhalation. Mice were aerosolized with THAM (10× dose used in our prior human studies) or water (ctrl) in a whole-body exposure chamber for 3.5 hrs/d (5 d total). 3 d later mice were euthanized/studied. (B) BAL-total cell cts. (C) BAL-% alveolar macrophages. (D) BAL-LDH activity. […] (F) Airway resistance (FlexiVent). […] (G) Lung histology (HE). Data are mean±SEM. n=4-10/group. * p<0.05, t-test. Some SEM bars are hidden in mean bars.

[4] = test system: human CF airway cultures; assay: ASL viscosity in human CF airway cultures; type: cell-based
Description: (A) Effect of saline or THAM on ASL viscosity in humanCF airway cultures. […] Data are mean±SEM. n=6 individual donors/group. * p<0.05, t-test.
Two approaches are used to investigate the viscoelastic properties of airway mucus. […] Second, in airway epithelial cell cultures from non-CF and CF newborn pig and human donors, mucus viscosity (±THAM) is estimated by measuring the diffusion of fluorescent FITC-dextran with a FRAP assay and ASL/mucus pH using the pH indicator SNARF-1 (FIG. 11D&13A). Viscosity is directly correlated to diffusion. If the viscosity is high, FITC-dextran will slowly diffuse to the photo-bleached ASL areas.

[5] = test system: S. aureus; assay: CF sputum bacterial killing, bacteria-coated grids assay; type: cell-based, S. aureus (SH1000); conditions: for bacterial killing in human CF sputum: grid assay, compared to saline
Method: Adults diagnosed with CF were recruited. Patients were asked to swallow saliva and to expectorate all secretions during routine clinic visits. Sputum plugs were visually identified and separated from saliva, weighed and stored at −70° C. in small, tightly sealed containers to minimize water loss under needed. […] To guarantee adequate mixing of sputum with the different solutions, the mixture was homogenized (Sonic Dismembrator Model 100, Fisher Scientific) for 30 seconds. All experiments were conducted in a humidified chamber with constant 5% CO2.
To interrogate individual bacteria killing in CF sputum or in pigs, bacteria-coated grids assay were used (Pezzulo A A, Tang X X, Hoegger M J, Alaiwa M H, Ramachandran S, Moninger T O, et al. Reduced airway surface pH impairs bacterial killing in the porcine cystic fibrosis lung. Nature. 2012; 487(7405):109-13. Epub 2012/07/06. doi: 10.1038/nature11130. PubMed PMID: 22763554; PubMed Central PMCID: PMC3390761; Abou Alaiwa M H, Reznikov L R, Gansemer N D, Sheets K A, Horswill A R, Stoltz D A, et al. pH modulates the activity and synergism of the airway surface liquid antimicrobials beta-defensin-3 and LL-37. Proceedings of the National Academy of Sciences of the United States of America. 2014; 111(52):18703-8. doi: 10.1073/pnas.1422091112. PubMed PMID: 25512526; PubMed Central PMCID: PMC4284593). Gold grids (200 mesh, Ted Pella) were functionalized using a series of intervention: 100 mM 11-mercaptoundecanoic acid (MUA in 100% alcohol, Aldrich) for 60 min at room temperature, 1:1 mixture of 100 mM N-ethyl-N-(3-[…]) carbodiimide) (EDC) and 100 mM N-hydroxysuccinimide (NETS) for 30 min at room temperature, 0.1 mg/ml Neutravidin (Sigma) at 37° C. for 1 hour.
Two different strains of S. aureus were used (SH1000 a human strain for CF sputum killing studies and SA43 a porcine strain for pig studies). Bacteria were grown to mid-log phase, incubated with 0.2 mg/ml N-hydroxysulphosuccinimide (sulpho-NHS)-biotin for 60 min at room temperature, quenched with 100 mM glycine to bind excess free biotin and allowed to attach to Neutravidin-coated grids for 15 minutes prior to the experiment.
After bacteria-coated grids were exposed to pig trachea for 5 minutes or CF sputum for 15 minutes, they were immediately rinsed in phosphate buffered saline and stained with SYTO9/propidium iodide (Live/Dead BacLight Bacterial viability assay, Invitrogen), mounted on slides and imaged on a laser-scanning confocal microscope (Olympus FV1000). Live (green) and dead (red) bacteria were automatically counted using Image-based Tool for Counting Nuclei (ITCN 1.6, UCSB Center for Bio-Image Informatics, UC San Barbara) an ImageJ (U.S. National Institutes of Health, Bethesda, Maryland, USA) plugin.

[6] = test system: human non-CF/CF airway epithelial cultures; conditions: THAM (1 μl), pH at 0 & 15 m
Method: FIGS. 15A-15B. […] (A) THAM (1 μl) was applied to human n non-CF/CF airway epithelial cultures. pH was measured at 0 & 15 m with SNARF. Data are mean±SEM. n=6 donors/group. * p<0.05, t-test.

[7] = test system: tracheal ASL of CF piglets; conditions: 15 minutes after aerosolized tromethamine
Description: (§1) To measure pH in pigs in vivo, non-invasive dual lifetime referencing was used to interrogate a 3×3 mm planar optode (pH sensitive foil, PreSens GmbH) applied directly to the tracheal surface of anesthetized pigs (Pezzulo A A, Tang X X, Hoegger M J, Alaiwa M H, Ramachandran S, Moninger T O, et al. Reduced airway surface pH impairs bacterial killing in the porcine cystic fibrosis lung. Nature. 2012; 487(7405):109-13. Epub 2012/07/06. doi: 10.1038/nature11130. PubMed PMID: 22763554; PubMed Central PMCID: PMC3390761). pH-dependent polarized light phase shift was measured using a single channel pH meter (pH-1 mini; PreSens GmbH). The tip of the fiber optic pH meter was kept at the same constant distance from the tracheal surface in all samples and confirmed by recording the amplitude. Calibration before each set of measurements was done by measuring phase shift from flat filters soaked in standard pH buffers. All measurements were obtained in a humidified chamber at 37° C. and constant 5% CO2 to mimic physiologic conditions.
Pigs were initially sedated with Ketamine (20 mg/kg, IM injection) and Xylazine (2 mg/kg, IM injection) and anesthetized using Propofol (2 mg/kg, IV injection). The trachea was surgically exposed and accessed anteriorly. A small anterior window through the tracheal rings accessed a tracheal window to interventions and pH measurements. […]

[8] = test system: S. aureus Xen-29
[9] = intravenous, cited from earlier work
[10] = test system: human subjects; conditions: 24 h after aerosolized nasal delivery
Method: (§2) Prior to each study the pH probe was calibrated in buffer solutions of pH 6, 7 and 8 (VWR, West Chester, PA). Voltage was recorded with an Oakton pH6+ meter (Cole-Palmer, Vernon Hills, IL) and corrected to temperature. The probe was positioned at 6 cm from the most caudal aspect of the columella. The probe remained in position until the readings were stable. All measurements were taken from the right nostril and by the same operator. Subjects on intranasal medications (steroids or anticholinergics) or with history of nasal or sinus surgery were excluded from the study.

[11] = test system: nasal pH of subjects with cystic fibrosis (CF)
Method: as §2

[12] = test system: nasal pH of healthy volunteers; assay: Nasal pH of healthy human volunteers after instillation; type: in vivo; conditions: for nasal pH: 250 μl of 0.3 M solution
Method: as §2

[13] = test system: S. aureus; conditions: 15 minutes after aerosolized tromethamine, compared to NaCl
Method: Pigs were initially sedated with Ketamine (20 mg/kg, IM injection) and Xylazine (2 mg/kg, IM injection) and anesthetized using Propofol (2 mg/kg, IV injection). The trachea was surgically exposed and accessed anteriorly. A small anterior window through the tracheal rings accessed a tracheal window to interventions and pH measurements. All studies obtained in a 100% humidified chamber at 37° C. and constant 5% CO2 to mimic physiologic conditions. […]

[14] = test system: tracheal ASL of non-CF piglets; assay: Tracheal ASL pH of non-CF (wild type) newborn piglets after aerosolized buffer; type: in vivo, pig
Description: as §1
Pigs were initially sedated with Ketamine (20 mg/kg, IM injection) and Xylazine (2 mg/kg, IM injection) and anesthetized using Propofol (2 mg/kg, IV injection). The trachea was surgically exposed and accessed anteriorly. A small anterior window through the tracheal rings accessed a tracheal window to interventions and pH measurements. All studies obtained in a 100% humidified chamber at 37° C. and constant 5% CO2 to mimic physiologic conditions.

[15] = test system: non-CF newborn pig; conditions: PARI LC-PLUS nebulizer, distal mainstem bronchi
Description: THAM was aerosolized into a sedated, non-CF newborn pig with a PARI LC-PLUS® nebulizer, using a cone mask over the snout. After sedation, a pH probe was passed through the vocal cords and into the distal mainstem bronchi. ASL pH was continuously measured.

[16] = test system: coagulase-negative; conditions: aerosolized, non-CF subjects; cited from earlier work

## NC(CO)(CO)CO [tromethamine, tris(hydroxymethyl)aminomethane]
[1]
  additional buffering range at lower pH values: 3-6 pH
[2]; baseline vs 30 min after 250 μl 0.3 M tromethamine
  nasal voltage: no effect
[2]; inferred from nasal voltage
  epithelial barrier integrity: no disruption
[3]; BAL pH 3.5 hr after THAM inhalation
  airway (BAL) pH: raised the airway pH
[3]; mouse, in vivo
  BAL other proinflammatory cytokines, THAM vs water control: no difference
  clinical signs, gross pathology, BAL cell counts/cytokines/LDH, bronchoconstriction, histopathology: no adverse treatment related findings
  tolerability of THAM exposure: well tolerated
[4]
  ASL viscosity: reduced viscosity
[5]
  bacterial killing in human CF sputum: improved bacterial killing to non-CF levels; also recorded: acutely restored ASL bacterial killing
[5]; sputum mixed 1:1 (w/v) with 300 mM tromethamine ± 1197 mM (7%) NaCl, compared to hypertonic saline alone
  ability of CF sputum to kill S. aureus: increased the ability of CF sputum to kill S. aureus
[6]
  alkalinization of CF vs non-CF epithelia: Alkalinizes CF Epithelia Greater than Non-CF
[7]
  tracheal ASL pH: increased pH
[8]; 10 mM tromethamine (pH 8.65) vs 10 mM xylitol (pH 7.02), 1 μg/ml hBD-3, ionic strength 125 mM
  effect on hBD-3 antimicrobial activity: enhanced
[8]; 10 mM tromethamine (pH 8.65) vs 10 mM xylitol (pH 7.02), 10 μg/ml LL-37, ionic strength 125 mM
  effect on LL-37 antimicrobial activity: enhanced
[9]; serum
  persistence of serum alkalinizing effect: 16 to 48 h
[9]
  half-life when given intravenously: long half-life
[10]
  adverse effects reported: no adverse effects
[11]; 250 μl tromethamine
  nasal pH: increased nasal pH
[11]; 250 μl tromethamine, 30 minutes was the total duration of the experiment
  duration of increased nasal pH: 30 minutes
[11]; 30 min after THAM aerosolization into the nose of people with CF
  pH change at 30 min as share of the maximal pH response: ~ 80%
[12]
  nasal pH: alkalinized the nasal pH
[12]; 30 min after THAM aerosolization, non-CF noses
  pH change at 30 min as share of the maximal pH response: 30%
[13]; listed as THAM
  ASL bacterial killing: acutely restored ASL bacterial killing
[13]; listed as Tromethamine
  ASL bacterial killing: enhanced bacterial killing
[14]; 250 μl 0.3M tromethamine
  tracheal ASL pH immediately after administration: raised pH
[14]; 250 μl 0.3M tromethamine, 60 minutes
  tracheal ASL pH at 60 minutes: still higher than baseline
[15]
  airway alkalinization over time: Prolonged Airway Alkalinization

## O=C([O-])O.[Na+] [NaHCO3]
[4]
  ASL viscosity: reduced viscosity
[5]
  bacterial killing in human CF sputum: improved bacterial killing to non-CF levels
[5]; sputum mixed 1:1 v/v with 200 mM NaHCO3, compared to equimolar NaCl, grids recovered after 15 minutes
  CF sputum ability to kill S. aureus: increased the CF sputum ability to kill S. aureus
[8]; constant pH 7.5, absence of Ca2+ & Mg2+, 1 μg/ml hBD-3, NaHCO3 10-80 mM
  effect of increasing HCO3− concentration on hBD-3 antimicrobial activity: slightly inhibited
[8]; constant pH 7.5, absence of Ca2+ & Mg2+, 100 μm/ml LL-37, NaHCO3 10-80 mM
  effect of increasing HCO3− concentration on LL-37 antimicrobial activity: slightly inhibited
[8]; constant pH 7.5, presence of 1 mM Ca2+ & 1 mM Mg2+, 5 μg/ml hBD-3
  effect of increasing HCO3− concentration on hBD-3 antimicrobial activity: inhibited
[8]; constant pH 7.5, presence of 1 mM Ca2+ & 1 mM Mg2+, 100 μm/ml LL-37
  effect of increasing HCO3− concentration on LL-37 antimicrobial activity: inhibited
[12]; 250 μl of 2% (238 mM) NaHCO3
  time for nasal pH to return to baseline: ≤ 60 minutes
[12]; 250 μl of 2% (238 mM) NaHCO3 aerosolized into the nose
  nasal ASL pH: increased ASL pH
[12]; NaHCO3 increased to 5% or 7%
  effect of a higher concentration on the duration of the rise in nasal pH: no additional effect
[14]; 250 μl of 200 mM NaHCO3 aerosolized onto exposed trachea
  tracheal ASL pH: alkalinized ASL pH
[14]; NaHCO3/HCO3− aerosol, non-CF piglet trachea
  time for ASL pH to return to baseline: ≤ 30 minutes

## OC[C@@H](O)[C@H](O)[C@@H](O)CO [xylitol]
[16]
  nasal coagulase-negative S. aureus colonization: decreased
[12]
  nasal pH: no effect
